Here are results for four compounds from ChEMBL document CHEMBL1201862, “PubChem BioAssay data set” (2004).

Assay [1] has as its target T1, 1-phosphatidylinositol 4,5-bisphosphate phosphodiesterase gamma-1 (Homo sapiens, UniProt P19174).
T1 sequence (P19174 whole entry): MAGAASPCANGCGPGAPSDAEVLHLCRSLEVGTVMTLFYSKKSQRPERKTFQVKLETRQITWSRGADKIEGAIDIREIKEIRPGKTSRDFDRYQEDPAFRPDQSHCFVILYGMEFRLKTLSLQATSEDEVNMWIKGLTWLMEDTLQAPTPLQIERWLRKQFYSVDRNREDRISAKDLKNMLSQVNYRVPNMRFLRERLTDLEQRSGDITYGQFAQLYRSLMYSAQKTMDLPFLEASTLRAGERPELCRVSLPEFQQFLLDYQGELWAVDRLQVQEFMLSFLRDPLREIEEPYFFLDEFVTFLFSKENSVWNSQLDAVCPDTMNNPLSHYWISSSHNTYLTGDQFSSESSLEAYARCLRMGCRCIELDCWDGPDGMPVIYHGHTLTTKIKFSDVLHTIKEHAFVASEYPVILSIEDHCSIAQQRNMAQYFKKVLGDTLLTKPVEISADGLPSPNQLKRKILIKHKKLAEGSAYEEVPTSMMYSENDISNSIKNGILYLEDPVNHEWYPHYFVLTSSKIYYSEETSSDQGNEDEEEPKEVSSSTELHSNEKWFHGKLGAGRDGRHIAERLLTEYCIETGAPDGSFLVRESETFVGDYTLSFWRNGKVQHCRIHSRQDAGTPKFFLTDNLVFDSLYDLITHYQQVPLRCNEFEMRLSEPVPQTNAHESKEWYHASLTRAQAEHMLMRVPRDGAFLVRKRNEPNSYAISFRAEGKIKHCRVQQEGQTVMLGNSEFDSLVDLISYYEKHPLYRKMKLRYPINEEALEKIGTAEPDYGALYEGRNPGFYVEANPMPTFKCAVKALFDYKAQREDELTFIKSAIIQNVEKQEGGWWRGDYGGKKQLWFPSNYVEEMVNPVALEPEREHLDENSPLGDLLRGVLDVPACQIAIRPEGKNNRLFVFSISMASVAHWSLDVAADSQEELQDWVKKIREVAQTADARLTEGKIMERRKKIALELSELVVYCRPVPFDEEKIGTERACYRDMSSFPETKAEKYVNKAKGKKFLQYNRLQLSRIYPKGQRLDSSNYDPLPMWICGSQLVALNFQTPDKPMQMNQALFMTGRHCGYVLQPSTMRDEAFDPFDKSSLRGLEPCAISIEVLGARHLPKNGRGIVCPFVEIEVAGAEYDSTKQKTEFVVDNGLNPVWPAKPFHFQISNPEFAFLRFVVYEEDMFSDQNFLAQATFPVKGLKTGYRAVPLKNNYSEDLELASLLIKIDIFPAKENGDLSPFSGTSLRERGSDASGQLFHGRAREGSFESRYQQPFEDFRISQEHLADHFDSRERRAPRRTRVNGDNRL
As to the kind of experiment: Counterscreen for inhibitors of phospholipase C isozymes (PLC-B3): Fluorescence-based biochemical high throughput dose response assay to identify inhibitors of phospholipase C isozymes (PLC-gamma1).

The target of the next assay is Nonstructural protein 1 (Influenza A virus, UniProt Q194T2). The class given is functional, Influenza A virus (A/California/07/2009(H1N1)).
Nonstructural protein 1, sequence (Q194T2 whole entry): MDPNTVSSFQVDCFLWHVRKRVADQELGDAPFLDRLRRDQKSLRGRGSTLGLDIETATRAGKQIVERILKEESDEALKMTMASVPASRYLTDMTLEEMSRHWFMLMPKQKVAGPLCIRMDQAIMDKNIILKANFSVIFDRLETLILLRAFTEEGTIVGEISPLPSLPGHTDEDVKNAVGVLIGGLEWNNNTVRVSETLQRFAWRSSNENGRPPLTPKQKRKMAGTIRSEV
Assay [2] deals with Delta-type opioid receptor (Homo sapiens, UniProt P41143). Briefly: Counterscreen for agonists of heterodimerization of the mu 1 (OPRM1) and delta 1 (OPRD1) opioid receptors: Luminescence-based cell-based high throughput dose response assay to identify agonists of OPRD1 homodimerization. [Related pubchem assays (depositor defined):AID504326, AID504355, AID504692, AID504904, AID504905]. The class given is functional.
Delta-type opioid receptor, sequence (P41143 whole entry): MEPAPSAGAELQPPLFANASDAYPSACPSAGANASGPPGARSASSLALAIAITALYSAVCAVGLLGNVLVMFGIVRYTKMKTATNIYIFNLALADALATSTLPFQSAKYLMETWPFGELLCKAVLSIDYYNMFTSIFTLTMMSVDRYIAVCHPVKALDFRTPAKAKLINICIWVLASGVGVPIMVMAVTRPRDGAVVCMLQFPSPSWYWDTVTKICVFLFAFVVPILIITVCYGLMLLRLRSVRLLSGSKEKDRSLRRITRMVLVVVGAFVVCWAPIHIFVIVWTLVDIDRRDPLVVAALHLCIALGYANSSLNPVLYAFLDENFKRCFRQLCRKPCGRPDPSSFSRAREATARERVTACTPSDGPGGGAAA

The next assay deals with INS1. As to the kind of experiment: INS-1E survival protection against cytokine death – cell-based, luminescence, retest, dose response (AID 449756).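 Also: cell death triggered by IL-1 beta plus TNF-alpha plus IFN-gamma mixture; protective hits raise ATP signal compared with cytokine alone wells.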 The note with it: Rattus norvegicus. The class given is functional.
The test system of another assay is Streptococcus. As to the kind of experiment: GAS UMAA2166 growth inhibition – luminescence, BacTiterGlo, counter-screen for streptokinase expression inhibitor project, dose response (AID 1915).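 Also: potency for reduction of bacterial viability or growth.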 It counts as functional, organism-based.
Assay [3] addresses Mitochondrial peptide methionine sulfoxide reductase (Bos taurus, UniProt P54149). As to the kind of experiment: Absorbance-based biochemical high throughput dose response assay for activators of Methionine sulfoxide reductase A (MsrA). The class given is functional.
Another assay concerns the target Phospholipase A2 (Homo sapiens, UniProt P04054). The class given is functional.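 Also: confirmatory dose-response counterscreen on phospholipase A2, testing hits that came from an ultra-high-throughput screen for ATG4B inhibitors.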
The nature of assay [4]: THP-1 cell cytotoxicity, dose response, cytotoxicity control for non-replicating M. tuberculosis project (AID 489025). It counts as functional.
Another assay deals with T2, Caspase-6 (Homo sapiens, UniProt P55212).
T2 sequence (P55212 whole entry): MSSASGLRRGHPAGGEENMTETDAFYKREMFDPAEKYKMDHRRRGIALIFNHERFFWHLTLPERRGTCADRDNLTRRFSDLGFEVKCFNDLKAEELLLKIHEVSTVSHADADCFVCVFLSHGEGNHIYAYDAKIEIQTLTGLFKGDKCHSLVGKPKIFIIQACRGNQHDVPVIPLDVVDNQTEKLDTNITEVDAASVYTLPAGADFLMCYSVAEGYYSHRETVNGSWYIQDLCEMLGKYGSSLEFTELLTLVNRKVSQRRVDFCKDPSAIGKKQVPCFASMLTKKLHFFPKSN
Briefly: inhibition of CASP6 peptide cleavage – biochemical, VEID-R110 fluorescence, cherry-pick, dose response (AID 720632).

In assay [5] the target is T3, Heat shock factor protein 1 (Mus musculus, UniProt P38532).
T3 sequence (P38532 whole entry): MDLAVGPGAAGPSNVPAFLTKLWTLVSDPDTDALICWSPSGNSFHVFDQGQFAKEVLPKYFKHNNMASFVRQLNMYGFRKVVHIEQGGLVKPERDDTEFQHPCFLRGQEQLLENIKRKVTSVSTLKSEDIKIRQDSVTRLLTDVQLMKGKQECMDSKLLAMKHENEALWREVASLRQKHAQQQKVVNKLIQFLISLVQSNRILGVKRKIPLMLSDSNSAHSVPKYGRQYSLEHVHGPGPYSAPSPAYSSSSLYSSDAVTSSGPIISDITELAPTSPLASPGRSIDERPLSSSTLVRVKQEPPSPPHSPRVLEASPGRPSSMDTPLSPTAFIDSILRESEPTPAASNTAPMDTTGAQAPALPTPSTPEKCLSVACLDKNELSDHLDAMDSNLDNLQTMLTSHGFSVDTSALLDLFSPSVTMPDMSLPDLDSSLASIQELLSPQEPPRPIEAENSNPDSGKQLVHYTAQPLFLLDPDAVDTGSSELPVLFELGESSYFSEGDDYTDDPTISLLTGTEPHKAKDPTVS
Briefly: enhancement of HSF1-driven luciferase signal – cell-based, NIH3T3, luminescence, dose retest, confirmation (AID 435004).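 Also: stress induced by proteasome inhibitor MG132 added 30 min after compound; luciferase reporter driven by HSF1 response element in NIH3T3 cells; actives raise luminescence as potentiators of the MG132 stress response.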 It counts as functional.

Another assay concerns the target Caspase-9 (Homo sapiens, UniProt P55211). Briefly: inhibitors of purified CASP9 protease – biochemical, fluorescence, plate reader, cherry-picked samples, selectivity assay for caspase-6 inhibitor project, dose response (AID 743293).

Calls of active or inactive are those of the source.

Phospholipase A2, sequence (P04054 whole entry): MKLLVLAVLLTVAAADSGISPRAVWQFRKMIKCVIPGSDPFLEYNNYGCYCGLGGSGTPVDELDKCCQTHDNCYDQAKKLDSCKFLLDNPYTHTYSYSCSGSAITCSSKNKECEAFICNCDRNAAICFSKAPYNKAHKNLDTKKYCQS
Mitochondrial peptide methionine sulfoxide reductase, sequence (P54149 whole entry): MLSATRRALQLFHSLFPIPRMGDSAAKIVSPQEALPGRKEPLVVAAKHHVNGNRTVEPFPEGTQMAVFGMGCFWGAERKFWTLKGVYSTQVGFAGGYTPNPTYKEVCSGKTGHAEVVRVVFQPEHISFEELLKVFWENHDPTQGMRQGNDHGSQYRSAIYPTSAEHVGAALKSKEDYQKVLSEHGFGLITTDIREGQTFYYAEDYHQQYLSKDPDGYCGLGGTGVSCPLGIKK
Caspase-9, sequence (P55211 1-315 limits assumed): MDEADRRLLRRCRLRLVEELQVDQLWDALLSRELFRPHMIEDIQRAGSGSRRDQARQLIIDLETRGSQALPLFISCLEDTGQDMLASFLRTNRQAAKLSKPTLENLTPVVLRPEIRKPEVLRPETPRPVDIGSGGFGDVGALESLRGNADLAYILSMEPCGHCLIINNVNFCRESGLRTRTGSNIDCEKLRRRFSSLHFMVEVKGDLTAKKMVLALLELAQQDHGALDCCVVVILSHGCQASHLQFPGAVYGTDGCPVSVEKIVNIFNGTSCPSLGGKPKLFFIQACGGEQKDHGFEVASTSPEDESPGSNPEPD
Caspase-9, sequence (P55211 331-416 limits assumed): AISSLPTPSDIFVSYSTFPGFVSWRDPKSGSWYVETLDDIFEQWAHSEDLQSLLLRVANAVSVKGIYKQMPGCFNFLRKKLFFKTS

For the compound `O=C(CCN1C(=O)/C(=C\c2ccco2)SC1=S)Nc1ccc(C(=O)O)c(O)c1`, the IC50 in [1] is > 122 µM (inactive).

As to `O=C1C=C(c2c(O)ccc3ccccc23)c2ccccc2C1=O`, the concentration for half-maximal inhibition (IC50) on Nonstructural protein 1 is 46.5 µM (active). Also, the EC50 in [2] was > 92.4 µM (inactive).

As to `Cc1nc2c(=O)n(C)c(=O)nc-2n(C)n1`, the half-maximal activity concentration (AC50) in the assay with INS1 is 0.695 µM (active). In addition, the EC50 in the assay on Streptococcus was 9.31 µM (active); in assay [3] it was 63.7 µM (inactive). Also, the IC50 on Phospholipase A2 is > 80 µM (inactive). Besides, the CC50 in assay [4] is 2.73 µM (active).

`Oc1nc(Nc2ccccc2Cl)cc2ccccc12`: the results for the half-maximal activity concentration (AC50) on Caspase-6 and on Caspase-9 were 3.75 µM (active) and 28.8 µM (active), respectively. Moreover, the half-maximal effective concentration (EC50) in assay [5] was 136 µM (active).
